Patent publication US9567319B2, “Compound having higher inhibitory activity on protein kinase G and preparation method thereof” (Jenkem Technology Co., Ltd., (Tianjin), priority 2014, dated 2017)
“And” between values parts separate entries of the source, which are not always exact repeats. Equal entries are not always repeated.

Key:
[1] = test system: hyperalgesia induced by Freund's complete adjuvant (CFA) in rats; assay: Weight bearing test, CFA induced hyperalgesia in rats; format: in vivo, SD rats; conditions: for Weight Bearing Test Values (Mean ± SD), Baseline: pretreatment, n=8; for Weight Bearing Test Values (Mean ± SD), 15 min: 15 min post treatment; for Weight Bearing Test Values (Mean ± SD), 2 h: 2 h post treatment
Protocol: Compounds 46 and JK-02A were prepared according to the disclosure of US patent application No. US2008/0176920, and compound JK-02H was prepared according to Example 1. A repeat efficacy study was carried out on the same batch of animals with a single-dose treatment followed by a washing-out period. The 14 days in life studies included two stages: a single low dose treatment assessment on the 7th day and then a single high dose treatment test on the 14th day after CFA injection. On the 7th day after CFA injection, the rats were randomly assigned to respective groups using a computer generated randomization procedure based on the body weight and the baseline values of Von Frey and weight bearing test. Animals received corresponding single dose treatments (vehicle and 3 test articles) on the 7th and 14th days after CFA injection, respectively, and the effect of the test compounds were evaluated. Hyperalgesia of all the study animals was assessed following a single low dose treatment with the test articles on day 7, while a single high dose effect of the test article was evaluated on day 14. The mechanical hyperalgesia and weight bearing were measured on day 7 and day 14 after CFA injection, followed by administration of control or test articles. Von Frey filaments and weight bearing were measured on all the study animals at three time points on day 7, and four time points on day 14. An extra time point assessment was conducted on day 14, considering the strong analgesic effect of the test articles at a higher dose noticed during the test at the 3th time point. Rats distributed body weight unequally on the CFA-injected and contra lateral paws, which was measured by a weight balance changing instrument (Bio-medical, USA). The animals were tested in a box constructed to register the weight load exerted by the hind paws by means of force plates inserted in the floor. The mean weight bearing (unit in “g”) between the CFA-injected paw and the contra-lateral paw was determined in 10 seconds. The weight bearing test of all study animals was conducted at the same time intervals as the mechanical hyperalgesia test. All the results were expressed as mean±SD. One-way analysis of variance (ANOVA) followed by a multiple comparison test were applied among the groups, p<0.05 accepted as significant.

[2] = test system: hyperalgesia induced by Freund's complete adjuvant (CFA) in rats; assay: Von Frey filament test, CFA induced hyperalgesia in rats; format: in vivo, SD rats; conditions: for Von Frey Filament Test Values (Mean ± SD), Baseline: pretreatment, n=8; for Von Frey Filament Test Values (Mean ± SD), 15 min: 15 min post treatment; for Von Frey Filament Test Values (Mean ± SD), 2 h: 2 h post treatment
Protocol: Compounds 46 and JK-02A were prepared according to the disclosure of US patent application No. US2008/0176920, and compound JK-02H was prepared according to Example 1. A repeat efficacy study was carried out on the same batch of animals with a single-dose treatment followed by a washing-out period. The 14 days in life studies included two stages: a single low dose treatment assessment on the 7th day and then a single high dose treatment test on the 14th day after CFA injection. On the 7th day after CFA injection, the rats were randomly assigned to respective groups using a computer generated randomization procedure based on the body weight and the baseline values of Von Frey and weight bearing test. Animals received corresponding single dose treatments (vehicle and 3 test articles) on the 7th and 14th days after CFA injection, respectively, and the effect of the test compounds were evaluated. Hyperalgesia of all the study animals was assessed following a single low dose treatment with the test articles on day 7, while a single high dose effect of the test article was evaluated on day 14. The mechanical hyperalgesia and weight bearing were measured on day 7 and day 14 after CFA injection, followed by administration of control or test articles. Von Frey filaments and weight bearing were measured on all the study animals at three time points on day 7, and four time points on day 14. An extra time point assessment was conducted on day 14, considering the strong analgesic effect of the test articles at a higher dose noticed during the test at the 3th time point. Mechanical hyperalgesia of the left hind paw was measured before and during the course of study in all animal groups by determining withdrawal thresholds to Von Frey filament (Bioseb, France). Increasing tensile force perpendicular to the plantar surface of the paw was applied to the filaments. The threshold for paw withdrawal was calculated by taking the average of 2-3 repeated stimuli (unit in “g”). On day 7, Von Frey Filament measurements were conducted three times, at the time points of pretreatment, 15 min and 2 hours post treatment. Following a one-week washing out period, on day 14 after CFA injection, Von Frey Filament tests were performed again four times post a single high dose administration. Rats treated with vehicle or high dose test articles were measured at the time points of pretreatment, 15 min, 2 and 5 hours post treatment. All the results were expressed as mean±SD. One-way analysis of variance (ANOVA) followed by a multiple comparison test were applied among the groups, p<0.05 accepted as significant.

[3] = day 7 after CFA, low dose groups (46 and JK-02A 10 mg/kg, JK-02H 5 mg/kg)
[4] = day 7 after CFA, single low dose i.v. (46 and JK-02A 10 mg/kg, JK-02H 5 mg/kg)
[5] = day 14 after CFA, high dose groups (46 and JK-02A 40 mg/kg, JK-02H 20 mg/kg)
[6] = day 14 after CFA, single high dose i.v. (46 and JK-02A 40 mg/kg, JK-02H 20 mg/kg)
[7] = day 14 after CFA, single high dose i.v. (46 and JK-02A 40 mg/kg, JK-02H 20 mg/kg), 5 h post treatment
[8] = individual animal, high dose i.v. (46 and JK-02A 40 mg/kg, JK-02H 20 mg/kg)
[9] = individual animal, low dose i.v. (46 and JK-02A 10 mg/kg, JK-02H 5 mg/kg)
[10] = individual animal, high dose i.v. (46 and JK-02A 40 mg/kg, JK-02H 20 mg/kg), two repeated stimuli
[11] = individual animal, low dose i.v. (46 and JK-02A 10 mg/kg, JK-02H 5 mg/kg), two repeated stimuli

CCCOc1ccc(O)c(F)c1C(=O)c1ccc(C(=O)N[C@@H]2CNC[C@H]2NC(=O)c2ccc3cn[nH]c3c2)cc1 [compound 46]
Weight Bearing Test Values (Mean ± SD), Baseline [1, 3]: 48.54 ± 7.73 g | Weight Bearing Test Values (Mean ± SD), 15 min [1, 4]: 44.76 ± 8.54 g | Weight Bearing Test Values (Mean ± SD), 2 h [1, 4]: 41.09 ± 8.58 g | Weight Bearing Test Values (Mean ± SD), Baseline [1, 5]: 46.73 ± 5.58 g | Weight Bearing Test Values (Mean ± SD), 15 min [1, 6]: 34.03 ± 5.67 g | Weight Bearing Test Values (Mean ± SD), 2 h [1, 6]: 44.46 ± 11.29 g | Weight Bearing Test Values (Mean ± SD), 5 h [1, 7]: 41.06 ± 6.98 g | Weight Bearing Values of Individual Animal, Day 14, 15 min, Left [1, 8]: 62.4 g and 64.0 g and 61.5 g and 63.7 g and 59.2 g and 39.7 g and 52.6 g and 68.4 g | Weight Bearing Values of Individual Animal, Day 14, 15 min, Right [1, 8]: 96.4 g and 104.7 g and 95.1 g and 95.7 g and 96.9 g and 71.9 g and 75.2 g and 107.8 g | Weight Bearing Values of Individual Animal, Day 14, 15 min, Δ [1, 8]: 34.0 g and 40.7 g and 33.6 g and 32.0 g and 37.7 g and 32.2 g and 22.6 g and 39.4 g | Weight Bearing Values of Individual Animal, Day 14, 2 h, Left [1, 8]: 59.9 g and 68.1 g and 65.7 g and 44.8 g and 56.2 g and 36.9 g and 65.4 g and 67.0 g | Weight Bearing Values of Individual Animal, Day 14, 2 h, Right [1, 8]: 107.1 g and 101.0 g and 112.2 g and 110.9 g and 98.5 g and 87.3 g and 94.8 g and 107.9 g | Weight Bearing Values of Individual Animal, Day 14, 2 h, Δ [1, 8]: 47.2 g and 32.9 g and 46.5 g and 66.1 g and 42.3 g and 50.4 g and 29.4 g and 40.9 g | Weight Bearing Values of Individual Animal, Day 14, 5 h, Left [1, 8]: 55.9 g and 34.5 g and 56.8 g and 58.2 g and 47.3 g and 31.3 g and 41.6 g and 73.0 g | Weight Bearing Values of Individual Animal, Day 14, 5 h, Right [1, 8]: 102.4 g and 85.3 g and 101.8 g and 88.4 g and 90.0 g and 66.5 g and 76.3 g and 116.4 g | Weight Bearing Values of Individual Animal, Day 14, 5 h, Δ [1, 8]: 46.5 g and 50.8 g and 45.0 g and 30.2 g and 42.7 g and 35.2 g and 34.7 g and 43.4 g | Weight Bearing Values of Individual Animal, Day 7, 15 min, Left [1, 9]: 47.4 g and 40.2 g and 67.4 g and 60.4 g and 40.3 g and 39.0 g and 24.3 g and 58.1 g | Weight Bearing Values of Individual Animal, Day 7, 15 min, Right [1, 9]: 93.5 g and 94.1 g and 110.9 g and 89.1 g and 91.2 g and 81.7 g and 62.7 g and 112.0 g | Weight Bearing Values of Individual Animal, Day 7, 15 min, Δ [1, 9]: 46.1 g and 53.9 g (2×) and 43.5 g and 28.7 g and 50.9 g and 42.7 g and 38.4 g | Weight Bearing Values of Individual Animal, Day 7, 2 h, Left [1, 9]: 48.5 g and 39.0 g and 65.0 g and 66.3 g and 48.4 g and 43.4 g and 38.0 g and 54.8 g | Weight Bearing Values of Individual Animal, Day 7, 2 h, Right [1, 9]: 91.5 g and 81.8 g and 102.9 g and 97.7 g and 80.7 g and 82.3 g and 81.5 g and 113.7 g | Weight Bearing Values of Individual Animal, Day 7, 2 h, Δ [1, 9]: 43.0 g and 42.8 g and 37.9 g and 31.4 g and 32.3 g and 38.9 g and 43.5 g and 58.9 g | First Baseline, Balance Left, individual animal ([1]; individual animal, pretreatment day 7, left (CFA-injected) hind paw): 31.3 g and 27.8 g and 41.8 g and 63.2 g and 73.9 g and 49.6 g and 33.9 g and 60.4 g | First Baseline, Balance Right, individual animal ([1]; individual animal, pretreatment day 7, right hind paw): 83.6 g and 87.0 g and 91.8 g and 105.0 g and 114.0 g and 102.9 g and 71.5 g and 114.4 g | First Baseline, Balance Δ, individual animal ([1]; individual animal, pretreatment day 7, right minus left): 52.3 g and 59.2 g and 50.0 g and 41.8 g and 40.1 g and 53.3 g and 37.6 g and 54.0 g | Second Baseline, Balance Left, individual animal ([1]; individual animal, pretreatment day 14, left (CFA-injected) hind paw): 61.3 g and 45.0 g and 70.0 g and 51.2 g and 34.7 g and 24.8 g and 43.5 g and 65.5 g | Second Baseline, Balance Right, individual animal ([1]; individual animal, pretreatment day 14, right hind paw): 115.3 g and 95.2 g and 119.5 g and 104.5 g and 76.6 g and 67.1 g and 84.3 g and 107.3 g | Second Baseline, Balance Δ, individual animal ([1]; individual animal, pretreatment day 14, right minus left): 54.0 g and 50.2 g and 49.5 g and 53.3 g and 41.9 g and 42.3 g and 40.8 g and 41.8 g | Von Frey Filament Test Values (Mean ± SD), Baseline [2, 3]: 6.81 ± 0.74 g | Von Frey Filament Test Values (Mean ± SD), 15 min [2, 4]: 7.12 ± 1.20 g | Von Frey Filament Test Values (Mean ± SD), 2 h [2, 4]: 7.69 ± 1.59 g | Von Frey Filament Test Values (Mean ± SD), Baseline [2, 5]: 7.01 ± 0.75 g | Von Frey Filament Test Values (Mean ± SD), 15 min [2, 6]: 8.17 ± 1.50 g | Von Frey Filament Test Values (Mean ± SD), 2 h [2, 6]: 8.04 ± 1.83 g | Von Frey Filament Test Values (Mean ± SD), 5 h [2, 7]: 7.66 ± 1.72 g | Von Frey Values of Individual Animal, Day 14, 15 min [2, 10]: 7.3 g and 9.0 g and 8.3 g and 7.5 g and 9.6 g (2×) and 10.8 g and 7.0 g and 6.7 g and 8.2 g (2×) and 5.5 g and 5.6 g and 8.0 g and 10.5 g and 8.9 g | Von Frey Values of Individual Animal, Day 14, 2 h [2, 10]: 5.8 g and 7.3 g and 8.2 g and 7.0 g and 6.2 g and 7.1 g and 8.9 g (2×) and 7.2 g and 5.9 g (2×) and 8.5 g and 9.7 g and 8.8 g and 11.1 g and 12.1 g | Von Frey Values of Individual Animal, Day 14, 5 h [2, 10]: 6.6 g (2×) and 7.5 g (2×) and 7.1 g and 6.1 g and 5.9 g and 6.3 g and 8.8 g and 6.8 g and 5.8 g and 7.0 g and 8.7 g and 9.9 g and 11.7 g and 10.3 g | Von Frey Values of Individual Animal, Day 7, 15 min [2, 11]: 7.6 g (2×) and 7.5 g (2×) and 6.8 g and 6.6 g and 5.5 g and 8.2 g and 5.9 g and 7.9 g and 4.6 g and 5.3 g and 9.0 g and 8.9 g and 7.8 g and 7.2 g | Von Frey Values of Individual Animal, Day 7, 2 h [2, 11]: 9.3 g (2×) and 8.8 g and 9.4 g (2×) and 8.6 g and 6.5 g (3×) and 5.8 g and 5.9 g (2×) and 7.4 g and 5.5 g and 8.4 g and 9.8 g | First Baseline, Von Frey, individual animal ([2]; individual animal, pretreatment day 7, two repeated stimuli per animal): 7.4 g and 5.4 g and 6.2 g and 6.1 g (2×) and 6.4 g and 6.3 g and 5.5 g and 7.5 g and 7.0 g and 7.3 g and 6.7 g and 7.6 g (2×) and 8.1 g and 7.7 g | Second Baseline, Von Frey, individual animal ([2]; individual animal, pretreatment day 14 after washing-out, two repeated stimuli per animal): 7.6 g (2×) and 7.7 g and 6.4 g and 6.2 g (2×) and 5.5 g and 5.7 g and 7.1 g and 7.9 g and 7.0 g and 7.3 g and 7.2 g (2×) and 8.1 g and 7.5 g
